The source of these data is patent US20240336593A1, “Compound Having Antitumor Activity And Use Thereof” (lnnovStoneTherapeutics Limited, priority 2020, published 2024).

What is called pIC50 is the negative decadic logarithm of the IC50, by convention in mol/L.

pIC50: −log10 of the molar value.

The target of this experiment is PRMT5 (Homo sapiens (Human), UniProt O14744). Briefly: Inhibitory activity against PRMT5 enzyme by radioisotopic method. The conditions noted are these: PRMT5 5 nM, [3H]-SAM 0.3 μM, polypeptide substrate GL-27 100 nM, room temperature. The class given is biochemical. The protocol: Test Example 1. Test on the inhibitory activity of the compounds of the invention against PRMT5 enzyme by radioisotopic method
Sequence of PRMT5 (O14744 whole entry): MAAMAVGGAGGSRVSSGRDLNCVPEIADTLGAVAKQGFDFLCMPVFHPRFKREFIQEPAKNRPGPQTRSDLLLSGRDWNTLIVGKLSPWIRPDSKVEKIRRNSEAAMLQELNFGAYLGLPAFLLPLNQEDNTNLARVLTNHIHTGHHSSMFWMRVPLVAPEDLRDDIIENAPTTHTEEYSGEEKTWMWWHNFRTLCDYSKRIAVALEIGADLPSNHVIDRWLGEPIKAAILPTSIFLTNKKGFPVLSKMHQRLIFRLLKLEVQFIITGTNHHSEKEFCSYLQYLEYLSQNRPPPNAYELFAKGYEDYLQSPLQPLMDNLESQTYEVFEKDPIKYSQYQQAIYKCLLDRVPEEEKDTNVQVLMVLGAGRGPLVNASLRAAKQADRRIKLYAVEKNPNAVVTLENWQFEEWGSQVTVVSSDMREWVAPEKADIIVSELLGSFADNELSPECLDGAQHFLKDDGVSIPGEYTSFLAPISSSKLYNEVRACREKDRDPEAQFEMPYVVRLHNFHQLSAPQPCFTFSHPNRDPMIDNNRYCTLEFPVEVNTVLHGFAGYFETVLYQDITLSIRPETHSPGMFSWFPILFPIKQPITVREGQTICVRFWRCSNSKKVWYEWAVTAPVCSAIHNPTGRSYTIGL
Sequence of PRMT5 (Q9BQA1 whole entry partner): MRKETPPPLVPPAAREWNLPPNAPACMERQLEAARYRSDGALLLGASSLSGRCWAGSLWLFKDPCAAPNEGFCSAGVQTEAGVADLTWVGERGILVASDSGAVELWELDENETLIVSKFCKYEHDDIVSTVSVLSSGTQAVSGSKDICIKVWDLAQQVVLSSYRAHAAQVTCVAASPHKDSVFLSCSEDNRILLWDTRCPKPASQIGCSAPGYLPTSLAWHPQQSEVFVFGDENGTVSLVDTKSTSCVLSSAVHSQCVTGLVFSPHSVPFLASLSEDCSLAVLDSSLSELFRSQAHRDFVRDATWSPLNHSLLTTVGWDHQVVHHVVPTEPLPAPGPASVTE
Test method: A 1× enzyme reaction buffer (10 mM Tris 8.0 (Sigma, Cat. No. T2694-1L), 0.01% Tween-20 (Sigma, Cat. No. P2287-100 ML), 1 mM DTT (Sigma, Cat. No. D0632-10G)) was prepared. PRMT5 (Active Motif, Cat. No. 31921) and [3H]—SAM (PerkinElmer, Cat. No. NET155V001MC) were added to the 1×enzyme reaction buffer, to prepare a 25/15× mixed solution (PRMT5 final concentration: 5 nM, [3H]—SAM final concentration: 0.3 μM). 15 μL of this solution was transferred into a 384-well microplate (Corning 384-well Polypropylene Storage Microplates, Cat. No. 3657) with various concentrations of the compounds (DMSO final concentration 1%), and incubated at room temperature for 60 minutes. A polypeptide substrate, GL-27 (Ac-[…]-K (Biotin) (GL Biochem, Cat. No. 342095)), was added into the 1×enzyme reaction buffer to prepare a 25/10× substrate solution. Then 10 μL of the polypeptide substrate solution (final concentration of the polypeptide substrate: 100 nM) was added, a reaction was stirred at room temperature for 120 minutes, and then 5 μL 6× ice cold SAM (Sigma, Cat. No. A7007-100 MG) solution was added to stop the reaction (SAM final concentration: 0.125 mM). 25 µL of the reaction mixture was transferred into a FlashPlate (Streptavidin FlashPlate HTS PLUS, High Capacity, 384-well, Perkin Elmer, Cat. No. SMP410A001PK), and incubated at room temperature for 1 h. After washed three times with distilled water containing 0.1% Tween-20, the microplate was read on a MicroBeta reader for CPM data (Counts Per Minute). […] Then the inhibition rate Inh % (Y) corresponding to each concentration (X) was input in EXCEL, and the IC50 value (the half maximal inhibitory concentration) of each compound was calculated with the XLfit plug-in according to the built-in four-parameter fitting equation Y=Bottom+(Top-Bottom)/(1+(IC50/X)[…]).
In the case of `CC(=O)N1CCC(Nc2cc(C(=O)N3CC[C@H](N4CCc5ccccc5C4)[C@@H](O)C3)ncn2)CC1` (relative stereo) [Example 17, trans-1-(4-((6-(4-(3,4-dihydroisoquinolin-2(1H)-yl)-3-hydroxypiperidine-1-carbonyl)pyrimidin-4-yl)amino)piperidin-1-yl)ethanone], the pIC50 is > 7.00.

Take `O[C@H]1CN(c2cc(Nc3ccccc3)ncn2)CC[C@@H]1N1CCc2ccccc2C1` (relative stereo) [Example 24, trans-4-(3,4-dihydroisoquinolin-2(1H)-yl)-1-(6-(phenylamino)-pyrimidin-4-yl)piperidin-3-ol]: the negative logarithm of the IC50 (pIC50) was > 7.00.

Regarding `CC(=O)N1CCC(Nc2cccc(C(=O)N3CC[C@H](N4CCc5ccccc5C4)[C@@H](O)C3)c2)CC1` (relative stereo) [Example 28, trans-1-(4-((3-(4-(3,4-dihydroisoquinolin-2(1H)-yl)-3-hydroxypiperidine-1-carbonyl)phenyl)amino)piperidin-1-yl)ethan-1-one], the negative-log IC50 (pIC50) was > 7.00.

Consider `O[C@H]1CN(c2cc(Nc3ccc(F)cc3)ncn2)CC[C@@H]1N1CCc2ccccc2C1` (relative stereo) [Example 30, trans-4-(3,4-dihydroisoquinolin-2(1H)-yl)-1-(6-((4-fluorophenyl)amino)-pyrimidin-4-yl)piperidin-3-ol], for which the pIC50 was > 7.00.

In the case of `O[C@H]1CN(c2cc(Nc3cccc(C4CC4)c3)ncn2)CC[C@@H]1N1CCc2ccccc2C1` (relative stereo) [Example 35, trans-1-(6-((3-cyclopropylphenyl)amino)pyrimidin-4-yl)-4-(3,4-dihydroisoquinolin-2(1H)-yl)piperidin-3-ol], the negative logarithm of the IC50 (pIC50) was > 7.00.

`CC(C)(C)c1cccc(Nc2cc(N3CC[C@H](N4CCc5ccccc5C4)[C@@H](O)C3)ncn2)c1` (relative stereo) [Example 37, trans-1-(6-((3-t-butylphenyl)amino)pyrimidin-4-yl)-4-(3,4-dihydroisoquinolin-2(1H)-yl)piperidin-3-ol]: the negative-log IC50 (pIC50) was > 7.00.

For the compound `O[C@H]1CN(c2cc(Nc3ccc(C4CC4)cc3)ncn2)CC[C@@H]1N1CCc2ccccc2C1` (relative stereo) [Example 38, trans-1-(6-((4-cyclopropylphenyl)amino)pyrimidin-4-yl)-4-(3,4-dihydroisoquinolin-2(1H)-yl)piperidin-3-ol], the negative logarithm of the IC50 (pIC50) was > 7.00.

With `CC(C)(C)c1ccc(Nc2cc(N3CC[C@H](N4CCc5ccccc5C4)[C@@H](O)C3)ncn2)cc1` (relative stereo) [Example 39, trans-1-(6-((4-t-butylphenyl)amino)pyrimidin-4-yl)-4-(3,4-dihydroisoquinolin-2(1H)-yl)piperidin-3-ol], the negative-log IC50 (pIC50) was > 7.00.

Consider `O[C@H]1CN(c2cc(Nc3cccc(F)c3)ncn2)CC[C@@H]1N1CCc2ccccc2C1` (relative stereo) [Example 42, trans-1-(6-((3-fluorophenyl)amino)pyrimidin-4-yl)-4-(3,4-dihydroisoquinolin-2(1H)-yl)piperidin-3-ol], for which the negative logarithm of the IC50 (pIC50) was > 7.00.

`O[C@H]1CN(c2cc(Nc3cccc(Cl)c3)ncn2)CC[C@@H]1N1CCc2ccccc2C1` (relative stereo) [Example 43, trans-1-(6-((3-chlorophenyl)amino)pyrimidin-4-yl)-4-(3,4-dihydroisoquinolin-2(1H)-yl)piperidin-3-ol]: the negative logarithm of the IC50 (pIC50) was > 7.00.

On to `Cc1ccccc1Nc1cc(N2CC[C@H](N3CCc4ccccc4C3)[C@@H](O)C2)ncn1` (relative stereo) [Example 46, trans-1-(6-((2-methylphenyl)amino)pyrimidin-4-yl)-4-(3,4-dihydroisoquinolin-2(1H)-yl)piperidin-3-ol], for which the pIC50 was > 7.00.

In the case of `COc1cccc(Nc2cc(N3CC[C@H](N4CCc5ccccc5C4)[C@@H](O)C3)ncn2)c1` (relative stereo) [Example 47, trans-1-(6-((3-methoxyphenyl)amino)pyrimidin-4-yl)-4-(3,4-dihydroisoquinolin-2(1H)-yl)piperidin-3-ol], the pIC50 was > 7.00.

Regarding `O[C@H]1CN(c2cc(Nc3ccc(N4CCOCC4)cc3)ncn2)CC[C@@H]1N1CCc2ccccc2C1` (relative stereo) [Example 49, trans-4-(3,4-dihydroisoquinolin-2(1H)-yl)-1-(6-((4-morpholinylphenyl)amino)pyrimidin-4-yl)piperidin-3-ol], the pIC50 was > 7.00.

For `O[C@H]1CN(c2cc(Nc3ccccc3N3CCOCC3)ncn2)CC[C@@H]1N1CCc2ccccc2C1` (relative stereo) [Example 50, trans-4-(3,4-dihydroisoquinolin-2(1H)-yl)-1-(6-((2-morpholinylphenyl)-amino)pyrimidin-4-yl)piperidin-3-ol], the negative logarithm of the IC50 (pIC50) is > 7.00.

Take `O[C@H]1CN(c2cc(Nc3ccccc3C3CC3)ncn2)CC[C@@H]1N1CCc2ccccc2C1` (relative stereo) [Example 51, trans-4-(3,4-dihydroisoquinolin-2(1H)-yl)-1-(6-((2-cyclopropylphenyl)amino)pyrimidin-4-yl)piperidin-3-ol]: the pIC50 is > 7.00.

As for `O[C@H]1CN(c2cc(Nc3ccccc3F)ncn2)CC[C@@H]1N1CCc2ccccc2C1` (relative stereo) [Example 53, trans-4-(3,4-dihydroisoquinolin-2(1H)-yl)-1-(6-((2-fluorophenyl)amino)pyrimidin-4-yl)piperidin-3-ol], the pIC50 is > 7.00.

Regarding `O[C@H]1CN(c2cc(Nc3ccccc3Cl)ncn2)CC[C@@H]1N1CCc2ccccc2C1` (relative stereo) [Example 54, trans-4-(3,4-dihydroisoquinolin-2(1H)-yl)-1-(6-((2-chlorophenyl)amino)pyrimidin-4-yl)piperidin-3-ol], the pIC50 is > 7.00.

For the compound `COc1ccc(Nc2cc(N3CC[C@H](N4CCc5ccccc5C4)[C@@H](O)C3)ncn2)cc1` (relative stereo) [Example 55, trans-4-(3,4-dihydroisoquinolin-2(1H)-yl)-1-(6-((4-methoxyphenyl)amino)pyrimidin-4-yl)piperidin-3-ol], the pIC50 is > 7.00.

As for `CC(C)(C)c1ccccc1Nc1cc(N2CC[C@H](N3CCc4ccccc4C3)[C@@H](O)C2)ncn1` (relative stereo) [Example 56, trans-4-(3,4-dihydroisoquinolin-2(1H)-yl)-1-(6-((2-t-butylphenyl)amino)pyrimidin-4-yl)piperidin-3-ol], the pIC50 is > 7.00.

With `COc1ccccc1Nc1cc(N2CC[C@H](N3CCc4ccccc4C3)[C@@H](O)C2)ncn1` (relative stereo) [Example 57, trans-4-(3,4-dihydroisoquinolin-2(1H)-yl)-1-(6-((2-methoxyphenyl)amino)pyrimidin-4-yl)piperidin-3-ol], the pIC50 is > 7.00.

Regarding `O[C@H]1CN(c2cc(Nc3ccccc3C(F)(F)F)ncn2)CC[C@@H]1N1CCc2ccccc2C1` (relative stereo) [Example 58, trans-4-(3,4-dihydroisoquinolin-2(1H)-yl)-1-(6-((2-trifluoromethylphenyl)amino)pyrimidin-4-yl)piperidin-3-ol], the pIC50 is > 7.00.

Regarding `O[C@H]1CN(c2cc(Nc3ccc(Cl)cc3)ncn2)CC[C@@H]1N1CCc2ccccc2C1` (relative stereo) [Example 62, trans-4-(3,4-dihydroisoquinolin-2(1H)-yl)-1-(6-((4-chlorophenyl)amino)pyrimidin-4-yl)piperidin-3-ol], the pIC50 is > 7.00.
